Reference: patent publication US20130190407A1, “CALCIUM RECEPTOR-ACTIVE MOLECULES” (NPS Pharmaceuticals, Inc., priority 1991, published 2013)

What was measured:
[1] = target: T1, parathyroid cell calcium receptor (Homo sapiens, UniProt P41180); assay: [Ca2+]i (fura-2) in human parathyroid cells; format: cell-based; details: 20 μM
T1 construct: Dissociated parathyroid cells were prepared from a parathyroid adenoma obtained by surgery; endogenous in cells; host or cells: dissociated primary human parathyroid cells from patients with primary or uremic hyperparathyroidism
T1 sequence (P41180 20-1078): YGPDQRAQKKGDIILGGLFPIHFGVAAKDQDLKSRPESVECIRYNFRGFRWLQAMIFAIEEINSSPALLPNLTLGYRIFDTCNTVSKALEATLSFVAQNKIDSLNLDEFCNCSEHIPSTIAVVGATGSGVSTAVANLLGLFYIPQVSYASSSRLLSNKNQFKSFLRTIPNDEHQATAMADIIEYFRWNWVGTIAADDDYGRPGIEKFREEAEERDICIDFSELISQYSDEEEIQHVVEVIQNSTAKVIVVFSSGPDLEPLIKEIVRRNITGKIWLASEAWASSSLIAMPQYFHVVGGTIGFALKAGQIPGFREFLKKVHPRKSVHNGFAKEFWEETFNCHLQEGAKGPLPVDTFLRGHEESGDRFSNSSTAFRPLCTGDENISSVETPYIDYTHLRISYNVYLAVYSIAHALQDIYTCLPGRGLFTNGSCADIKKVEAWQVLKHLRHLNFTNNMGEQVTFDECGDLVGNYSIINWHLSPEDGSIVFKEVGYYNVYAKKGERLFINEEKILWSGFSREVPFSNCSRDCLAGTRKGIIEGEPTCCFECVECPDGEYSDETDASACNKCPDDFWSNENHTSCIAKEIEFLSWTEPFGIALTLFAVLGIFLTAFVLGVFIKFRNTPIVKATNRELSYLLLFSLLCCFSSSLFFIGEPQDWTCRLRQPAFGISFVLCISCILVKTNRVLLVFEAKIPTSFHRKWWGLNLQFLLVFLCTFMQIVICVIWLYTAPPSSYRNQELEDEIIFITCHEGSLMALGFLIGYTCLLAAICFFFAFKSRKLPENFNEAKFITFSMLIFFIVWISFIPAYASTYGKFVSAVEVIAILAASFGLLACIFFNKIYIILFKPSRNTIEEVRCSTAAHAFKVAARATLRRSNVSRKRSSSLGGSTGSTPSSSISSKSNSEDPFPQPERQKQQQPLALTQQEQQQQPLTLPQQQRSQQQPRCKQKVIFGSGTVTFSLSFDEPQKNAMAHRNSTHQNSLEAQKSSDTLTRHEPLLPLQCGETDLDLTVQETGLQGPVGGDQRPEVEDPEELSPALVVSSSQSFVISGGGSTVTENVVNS
Protocol: This section describes procedures used to obtain and treat parathyroid cells from calves and humans. […] Human parathyroid glands, were obtained from patients undergoing surgical removal of parathyroid tissue for primary or uremic hyperparathyroidism (uremic HPT), and were treated similarly to bovine tissue.
The cells were then pelleted, resuspended in the same buffer, but lacking the ester, and incubated a further 15 minutes at 37° C. The cells were subsequently washed twice with PCB containing 0.5 mM CaCl2 and 0.5% BSA and maintained at room temperature (about 20° C.) Immediately before use, the cells were diluted five-fold with prewarmed 0.5 mM CaCl2-PCB to obtain a final BSA concentration of 0.1%. The concentration of cells in the cuvette used for fluorescence recording was 1−2×10^6/ml.
The fluorescence of indicator-loaded cells was measured at 37° C. in a spectrofluorimeter (Biomedical Instrumentation Group, University of Pennsylvania, Philadelphia, Pa.) equipped with a thermostated cuvette holder and magnetic stirrer using excitation and emission wavelengths of 340 and 510 nm, respectively. […] To correct the calibration for dye leakage, cells were placed in the cuvette and stirred at 37° C. for 2-3 minutes. The cell suspension was then removed, the cells pelleted, and the supernatant returned to a clean cuvette. […] This estimate was subtracted from the apparent Fmin.

calcium receptor = target: T2, calcium receptor (Homo sapiens, UniProt P41180); assay: Cl- current in Xenopus oocytes injected with human parathyroid cell mRNA; format: cell-based
T2 construct: poly(A)^+-enriched mRNA from human parathyroid tissue (hyperplastic glands from a case of secondary HPT); expressed in transfected cells; host or cells: Xenopus laevis oocytes injected with poly(A)+ mRNA from hyperplastic human parathyroid glands
T2 sequence (P41180 20-1078): T1 sequence (P41180 20-1078)
Protocol: Oocytes were injected with poly(A)^+-enriched mRNA from human parathyroid tissue (hyperplastic glands from a case of secondary HPT).
Following incubation, an oocyte was placed into a 100-μl plastic chamber and superfused with MBS at a flow rate of 0.5 ml/min using a peristaltic pump. Test molecules or inorganic polycations were added by rapidly moving the tubing into different buffers. Recording and current-passing electrodes were constructed from thin-wall capillary tubing pulled to a resistance of 1-3 Mohms and filled with 3 M KCl. […] Currents were recorded directly onto a strip chart recorder.
Using this screen allows one to test for an action directly on the calcium receptor. Oocytes expressing the calcium receptor also responded to several molecules active on intact parathyroid cells when screened as follows. […] This offers rather compelling evidence showing that these molecules act on the calcium receptor or on some other protein intimately associated with its function.

Bovine parathyroid cells = format: cell-based; details: 10 μM isoproterenol 15 min; no pertussis toxin; 2.0 mM Ca2+, 200 μM spermine, 30 μM neomycin B, 2 μg/ml protamine; mean ± SEM
Protocol: This section describes measuring cyclic AMP levels. Cells were incubated as above for PTH secretion studies and at the end of the incubation, a 0.15-ml sample was taken and transferred to 0.85 ml of hot (70° C.) water and heated at this temperature for 5-10 minutes. The tubes were subsequently frozen and thawed several times and the cellular debris sedimented by centrifugation. Portions of the supernatant were acetylated and cyclic AMP concentrations determined by radioimmunoassay.
Bovine parathyroid cells were cultured for 16 hours with or without 100 ng/ml pertussis toxin. […] Each value is the mean±SEM of three experiments.

[2] = test system: healthy, post-menopausal person; assay: Placebo-controlled single-dose, dose-escalation study in a human; format: in vivo
Excerpt: A range of single oral doses was used to assess safety, tolerance, and changes in primary hyperparathyroidism markers (e.g., plasma concentrations of parathyroid hormone and ionized serum calcium) and of serum calcitonin.

SMILES	increase in [Ca2+]i [1]	change in current in water-injected oocytes (calcium receptor; 10 mM, five water-injected oocytes)	mobilization of intracellular Ca2+ in oocytes (calcium receptor; hexacyclen 135 μM, neomycin 100 μM, NPS 382 5 mM)	cyclic AMP (% of control), control (Bovine parathyroid cells)	Serum PTH ([2]; 20 mg single oral dose, 1 h)	Serum PTH ([2]; 240 mg single oral dose, 0.5 h)	serum ionized calcium concentration ([2]; at higher doses)	serum calcitonin ([2]; at the doses studied)	plasma PTH concentration ([2]; single oral doses)
NC[C@@H]1O[C@H](O[C@H]2[C@@H](O)[C@H](O[C@@H]3[C@@H](O)[C@H](N)C[C@H](N)[C@H]3O[C@H]3O[C@H](CN)[C@@H](O)[C@H](O)[C@H]3N)O[C@@H]2CO)[C@H](N)[C@@H](O)[C@@H]1O [Neomycin B, neomycin B]	large increase	failed to cause any change in the current	effective	28 ± 8 % of control					
COc1cccc([C@@H](C)NCCCc2ccccc2Cl)c1 [NPS R-568, (R)-(+)-N-[3-(2-chlorophenyl)propyl]-α-methyl-3-methoxybenzylamine]					18 pg/mL	18 pg/mL	decrease in serum ionized calcium concentration	no apparent change in serum calcitonin	transient dose-dependent decrease in plasma PTH concentration
